Source: US12024510B2, “Pyrazolopyridine-diamides, their use as insecticide and processes for preparing the same” (PI INDUSTRIES LTD., priority 2017, dated 2024)

How the values were obtained:
[1] = tested on: Helicoverpa armigera; test: Helicoverpa armigera diet incorporation method; format: in vivo; settings: third instar larvae, dead and moribund combined, 96 h after release
Protocol: (§1) Test Solutions were Prepared According to the Procedure Described Herein Below (500 PPM):
(§2) • 1. Eppendorf Vortex mixer (ThermoMixer C) and 1.5 mL Eppendorf tubes • 2. Zirconia (Zirconium-Yttrium) beads having diameter of 0.8 to 1.0 mm • 3. Microscope • 4. Beaker 100 mL • 5. Micro-pipette Reagents: • 1. Surfactant Solution • 2. De-mineralized (DM) Water • 1. Weigh 10 mg of the compound of the present invention to be tested in an Eppendorf Tube. • 2. Add 200 mg of the Surfactant Solution into the tube. • 3. Add 600 mg of Zirconia beads into the above mixture. • 4. Fix the tube in Eppendorf Vortex mixer and start vortexing at 2000 rpm. • 5. Mix on Vortex mixer for 30 minutes. After 30 minutes, observe the sample over a microscope at 400× resolution. • 6. If the Maximum particle size is more than 5 μm or average particle size is more than 2 μm or the particle size distribution is uneven, continue vortexing for another 30 minutes and again check the particle size using the microscope. Continue till the average particle size is below 2 microns. • 7. When the required particle size is achieved, add 1.0 mL DM water into the tube, close the cap, shake the tube thoroughly and transfer the contents, along with the beads, into a beaker. • 8. To rinse the tube, add another 1.0 mL of DM water into the tube, close the cap, shake well and transfer this into the same beaker. • 9. Repeat Step no. 8 one more time so that the tube is rinsed well and the compound of the present invention to be tested is transferred to the beaker. • 10. Add 16.8 mL of DM water into the beaker and stir well. • 11. The homogeneous dispersion can then be decanted into a glass vial, immediately, to separate the Zirconia beads. • 12. Immediately use this sample for biological testing. • 13. Further dilutions can be prepared by taking appropriate quantity of the aliquot of Step 10, immediately after stirring, and diluting as per requirement. The sample solution must be well mixed just before biological testing.
Diet incorporation method was used, in which and semi-synthetic diet was incorporated into the test solution when the temperature is approximately 50° C. in the bioassay containers and stirred thoroughly for properly mixing and then was allowed to cool for 30 min. The solidified diet was cut into equal pieces, and then each piece was transferred in one cell in Bio-assay trays. A single third instar starved larva was released into each of these cells of bioassay trays and the tray was covered with the lid. The bio-assay trays were kept under laboratory conditions at a temperature of 25° C. and Relative Humidity of 70%. Observations on dead, moribund and live larvae were recorded at 96 h after the release of larvae. Percent mortality was calculated by combining dead and moribund larvae. The following compound numbers

[2] = tested on: Plutella xylostella; test: whole plant or invertebrate; format: in vivo; settings: foliar, cabbage leaf dip, second instar larvae, dead and moribund combined, 72 h after release
Protocol: as §1, §2
Leaf dip method was used for screening, wherein the required quantity of the compounds were weighed and dissolved in the test solution into the tube and vortex at 2000 rpm with Zirconia beads for 90 min for proper mixing, then mixed with 0.01% Triton-X solution to get the desired test concentration. Cabbage leaves were dipped in the solution for 10 seconds, shade dried for 20 min and then transferred to bioassay trays. Single second instar larva was released into each cell and the tray was covered with lid. The bio-assay trays were kept under laboratory conditions at a temperature of 25° C. and relative humidity of 70%. Observations on dead, moribund and live larvae were recorded at 72 h after the release. Percent mortality was calculated by combining dead and moribund larvae. The following compound num.

Row | SMILES | mortality at 300 ppm [1] | mortality at 300 ppm [2]
1 | CONC(=O)c1c(NC(=O)c2cc(N3CC(F)(F)C3)nn2-c2ncccc2Cl)c(C)cc2ccnn12 [Compound 84, 6-(1-(3-chloropyridin-2-yl)-3-(3,3-difluoroazetidin-1-yl)-1H-pyrazole-5-carboxamido)-N-methoxy-5-methylpyrazolo[1,5-a]pyridine-7-carboxamide] | > 70% | > 70%
2 | Cc1cc2ccnn2c(C(=O)NCC(F)(F)F)c1NC(=O)c1cc(OCC(F)(F)F)nn1-c1ncccc1Cl [Compound 114, 6-(1-(3-chloropyridin-2-yl)-3-(2,2,2-trifluoroethoxy)-1H-pyrazole-5-carboxamido)-5-methyl-N-(2,2,2-trifluoroethyl)pyrazolo[1,5-a]pyridine-7-carboxamide] | > 70% | > 70%
3 | CCONC(=O)c1c(NC(=O)c2cc(OCC(F)(F)F)nn2-c2ncccc2Cl)c(C)cc2ccnn12 [Compound 115, 6-(1-(3-chloropyridin-2-yl)-3-(2,2,2-trifluoroethoxy)-1H-pyrazole-5-carboxamido)-N-ethoxy-5-methylpyrazolo[1,5-a]pyridine-7-carboxamide] | > 70% | > 70%
4 | Cc1cc2ccnn2c(C(=O)NOC(C)C)c1NC(=O)c1cc(OCC(F)(F)F)nn1-c1ncccc1Cl [Compound 116, 6-(1-(3-chloropyridin-2-yl)-3-(2,2,2-trifluoroethoxy)-1H-pyrazole-5-carboxamido)-N-isopropoxy-5-methylpyrazolo[1,5-a]pyridine-7-carboxamide] | > 70% | > 70%
5 | Cc1cc2ccnn2c(C(=O)NCC#N)c1NC(=O)c1cc(C(F)(F)F)nn1-c1ncccc1Cl [Compound 117, 6-(1-(3-chloropyridin-2-yl)-3-(trifluoromethyl)-1H-pyrazole-5-carboxamido)-N-(cyanomethyl)-5-methylpyrazolo[1,5-a]pyridine-7-carboxamide] | > 70% | > 70%
6 | CCCNC(=O)c1c(NC(=O)c2cc(OC)nn2-c2ncccc2Cl)c(Br)cc2ccnn12 [Compound 120, 5-bromo-6-(1-(3-chloropyridin-2-yl)-3-methoxy-1H-pyrazole-5-carboxamido)-N-propylpyrazolo[1,5-a]pyridine-7-carboxamide] | > 70% | 
7 | COc1cc(C(=O)Nc2c(Br)cc3ccnn3c2C(=O)NC2CC2)n(-c2ncccc2Cl)n1 [Compound 122, 5-bromo-6-(1-(3-chloropyridin-2-yl)-3-methoxy-1H-pyrazole-5-carboxamido)-N-cyclopropylpyrazolo[1,5-a]pyridine-7-carboxamide] | > 70% | 
8 | COc1cc(C(=O)Nc2c(Br)cc3ccnn3c2C(=O)NCC2CC2)n(-c2ncccc2Cl)n1 [Compound 123, 5-bromo-6-(1-(3-chloropyridin-2-yl)-3-methoxy-1H-pyrazole-5-carboxamido)-N-(cyclopropylmethyl)pyrazolo[1,5-a]pyridine-7-carboxamide] | > 70% | 
9 | CONC(=O)c1c(NC(=O)c2cc(OC)nn2-c2ncccc2Cl)c(Br)cc2ccnn12 [Compound 124, 5-bromo-6-(1-(3-chloropyridin-2-yl)-3-methoxy-1H-pyrazole-5-carboxamido)-N-methoxypyrazolo[1,5-a]pyridine-7-carboxamide] | > 70% | 
10 | CCNC(=O)c1c(NC(=O)c2cc(C(F)(F)F)nn2-c2ncccc2Cl)c(Br)cc2ccnn12 [Compound 127, 5-bromo-6-(1-(3-chloropyridin-2-yl)-3-(trifluoromethyl)-1H-pyrazole-5-carboxamido)-N-ethylpyrazolo[1,5-a]pyridine-7-carboxamide] | > 70% | > 70%
11 | COc1cc(C(=O)Nc2c(Br)cc3ccnn3c2C(=O)NC(C)C)n(-c2ncccc2Cl)n1 [Compound 130, 5-bromo-6-(1-(3-chloropyridin-2-yl)-3-methoxy-1H-pyrazole-5-carboxamido)-N-isopropylpyrazolo[1,5-a]pyridine-7-carboxamide] | > 70% | > 70%
12 | COc1cc(C(=O)Nc2c(Cl)cc3ccnn3c2C(=O)NCC2CC2)n(-c2ncccc2Cl)n1 [Compound 131, 5-chloro-6-(1-(3-chloropyridin-2-yl)-3-methoxy-1H-pyrazole-5-carboxamido)-N-(cyclopropylmethyl)pyrazolo[1,5-a]pyridine-7-carboxamide] | > 70% | > 70%
13 | O=C(Nc1c(Cl)cc2ccnn2c1C(=O)NCC(F)(F)F)c1cc(Br)nn1-c1ncccc1Cl [Compound 143, 6-(3-bromo-1-(3-chloropyridin-2-yl)-1H-pyrazole-5-carboxamido)-5-chloro-N-(2,2,2-trifluoroethyl)pyrazolo[1,5-a]pyridine-7-carboxamide] | > 70% | 
14 | CCCNC(=O)c1c(NC(=O)c2cc(Cn3nnc(C(F)(F)F)n3)nn2-c2ncccc2Cl)c(Cl)cc2ccnn12 [Compound 155, 5-chloro-6-(1-(3-chloropyridin-2-yl)-3-((5-(trifluoromethyl)-2H-tetrazol-2-yl)methyl)-1H-pyrazole-5-carboxamido)-N-propylpyrazolo[1,5-a]pyridine-7-carboxamide] | > 70% | 
15 | COCCNC(=O)c1c(NC(=O)c2cc(OC3CSC3)nn2-c2ncccc2Cl)c(C)cc2ccnn12 [Compound 161, 6-(1-(3-chloropyridin-2-yl)-3-(thietan-3-yloxy)-1H-pyrazole-5-carboxamido)-N-(2-methoxyethyl)-5-methylpyrazolo[1,5-a]pyridine-7-carboxamide] | > 70% | 
16 | Cc1cc2ccnn2c(C(=O)NC2(C)CC2)c1NC(=O)c1cc(Br)nn1-c1ncccc1Cl [Compound 172, 6-(3-bromo-1-(3-chloropyridin-2-yl)-1H-pyrazole-5-carboxamido)-5-methyl-N-(1-methylcyclopropyl)pyrazolo[1,5-a]pyridine-7-carboxamide] | > 70% | 
17 | Cc1cc2ccnn2c(C(=O)NCC(C)(C)C)c1NC(=O)c1cc(Br)nn1-c1ncccc1Cl [Compound 175, 6-(3-bromo-1-(3-chloropyridin-2-yl)-1H-pyrazole-5-carboxamido)-5-methyl-N-neopentylpyrazolo[1,5-a]pyridine-7-carboxamide] | > 70% | 
18 | Cc1cc2ccnn2c(C(=O)NC(C)C(C)C)c1NC(=O)c1cc(Br)nn1-c1ncccc1Cl (stereo not drawn) [Compound 191, 6-(3-bromo-1-(3-chloropyridin-2-yl)-1H-pyrazole-5-carboxamido)-5-methyl-N-(3-methylbutan-2-yl)pyrazolo[1,5-a]pyridine-7-carboxamide] | > 70% | 
19 | Cc1cc2ccnn2c(C(=O)NCC2CCCC2)c1NC(=O)c1cc(Br)nn1-c1ncccc1Cl [Compound 194, 6-(3-bromo-1-(3-chloropyridin-2-yl)-1H-pyrazole-5-carboxamido)-N-(cyclopentylmethyl)-5-methylpyrazolo[1,5-a]pyridine-7-carboxamide] | > 70% | 
20 | COc1cc(C(=O)Nc2c(C)cc3ccnn3c2C(=O)NCc2nccs2)n(-c2ncccc2Cl)n1 [Compound 204, 6-(1-(3-chloropyridin-2-yl)-3-methoxy-1H-pyrazole-5-carboxamido)-5-methyl-N-(thiazol-2-ylmethyl)pyrazolo[1,5-a]pyridine-7-carboxamide] | > 70% | 
21 | COc1cc(C(=O)Nc2c(C)cc3ccnn3c2C(=O)NCCC(C)C)n(-c2ncccc2Cl)n1 [Compound 211, 6-(1-(3-chloropyridin-2-yl)-3-methoxy-1H-pyrazole-5-carboxamido)-N-isopentyl-5-methylpyrazolo[1,5-a]pyridine-7-carboxamide] | > 70% | 
22 | COc1cc(C(=O)Nc2c(C)cc3ccnn3c2C(=O)NCC2CCCCO2)n(-c2ncccc2Cl)n1 (stereo not drawn) [Compound 213, 6-(1-(3-chloropyridin-2-yl)-3-methoxy-1H-pyrazole-5-carboxamido)-5-methyl-N-((tetrahydro-2H-pyran-2-yl)methyl)pyrazolo[1,5-a]pyridine-7-carboxamide] | > 70% | 
